The target of data set [1] is glycine/NMDA receptor. The data set can be described thus: 1 μM glycine-stimulated [3H]-MK801 binding assay (glycine/NMDA receptor). More on the design: species or system rat. The note with it: for pKi: glycine/NMDA receptor binding; for potency relative to 5,7-dichlorokynurenic acid (DCK): % of DCK. As to the method: This assay takes advantage of the fact that the binding of [^3 H]-MK801 to the PCP receptor inside the pore of the NMDA channel is dependent on the presence of both glutamate and glycine. In the absence of glycine but in the presence of glutamate, [^3 H]-MK801 cannot bind effectively to the PCP receptor, because the NMDA channel remains closed and access of [^3 H]-MK801 to the PCP receptor inside the closed channel pore is severely restricted.
The assay is conducted using rat brain membrane homogenates which are enriched in NMDA receptors. The membranes are prepared as follows. Frozen rat brains obtained from Pel-Freez, Rogers, Arkansas) are homogenized in 15 volumes (w/v) of ice cold 0.32M sucrose. The homogenate is spun at 1,000×g for ten minutes. The supernatant is collected and spun for 20 minutes at 44,000×g. The pellet is suspended in 15 volumes of water (relative to original brain weight). The homogenate is again spun at 44,000×g for twenty minutes. The pellet is resuspended in 5 volumes of water and the suspension is freeze-thawed 2 times. After the final thaw cycle, the suspension is brought to 15 volumes with water and spun at 44,000×g for twenty minutes. The pellet is resuspended in 5 volumes of ice-cold 10 mM HEPES, and is titrated to pH 7.4 with KOH containing 0.04% Triton X-100. Membranes are incubated with the Triton/HEPES buffer at 37° C. for 15 minutes. The volume is then brought to 15 with ice-cold 10 mM HEPES, pH 7.4, and spun/washed three times with spins of 44,000×g between washes. The final pellet is suspended in three volumes of 50 mM HEPES, pH 7.4 and the protein concentration is determined with a standard dye-binding protein assay (Bio-Rad, Richmond, Calif.). The suspension is stored at-80° C. until used. Only HPLC grade water is used for all buffers and suspensions/washings. The extensive washings are necessary to remove as much endogenous glycine from the membrane preparation as possible.
Nonspecific binding is defined as the […] presence of PCP (final concentration: 100 μM). To determine the effect of 1 μM glycine on the binding of [3H]-MK801, bound radioactivity in the presence of 10 μM glutamate alone (final concentration) is subtracted from the bound radioactivity in the presence of both 10 μM glummate and 1 μM glycine (final concentration). A 500 nM concentration (final) of 5,7-dichlorokynurenic (DCK) acid is added to all assay tubes. This concentration of the glycine antagonist DCK "buffers" most of the residual endogenous glycine that is not removed by the extensive washing steps that are carried out during the membrane preparation procedure.
The assays are incubated for 120 minutes at room temperature after which time the membrane-bound radioactivity is isolated from the free radioactivity by vacuum filtration through Whatman glass fiber filters that had been pretreated with 0.3% polyethyleneimine. Filtration is accomplished using a Brandel 48 well cell harvester. Filtered membranes are washed three times with 3 ml each of ice cold buffer. Filters are transferred to scintillation vials and 5 ml of scintillation cocktail is added. The vials are shaken overnight and the radioactivity is counted by liquid scintillation spectroscopy. The assays are done in triplicate and all experiments are conducted at least three times.

The conditions of data set [2]: cited from earlier work.
Data set [3] concerns glycine binding site of the NMDA receptor. The settings on record: cited from earlier work.
Data set [4] relates to neurons. The note with it: in words; cited from earlier work.
The conditions of data set [5]: in words; cited from earlier work.
Data set [6] deals with glycine receptor. The data set can be described thus: binding to the glycine receptor (general statement). The settings on record: in words.
Data set [7] addresses PCP receptor. The note with it: cited from earlier work.
In data set [8] the test system is pigeons. The settings on record: in words; cited from earlier work.
Data set [9] concerns rodents. The note with it: in words; cited from earlier work.

pKd, pKi: −log10 of the molar value. Where two headings read alike, the source gives them in different places.

What is called pKi is the negative decadic logarithm of the Ki, by convention in mol/L. A higher pKi goes with a low Ki.

Regarding “5,6-dichloro-3-nitro-4-hydroxy-1,2-dihydroquinolin-2-one [Compound 16f]”, the pKi in data set [1] was 6.10.

Regarding `O=c1[nH]c2cc(Cl)cc(Cl)c2[nH]c1=O` [5,7-dichloro-QX], the “potency relative to 5,7-dichlorokynurenic acid (DCK)” value in data set [1] turned out to be 20%.

In the case of `O=C(O)c1cc(O)c2c(Cl)cc(Cl)cc2n1` [5,7-dichlorokynurenic acid], the blood/brain barrier penetration entry in data set [2] (in vivo) is given as “cannot penetrate the blood/brain barrier”. The “affinity for the glycine binding site” value in data set [3] (in words) is “relatively high receptor binding affinity”.

`O=C(O)c1cc(O)c2ccc(Cl)cc2n1` [7-Cl-kynurenic acid]: the blood/brain barrier penetration result in [2] (in words) is reported as “cannot penetrate the blood/brain barrier”. Also, the “affinity for the glycine binding site” value in data set [3] (in words) is “relatively high receptor binding affinity”.

Turning to `O=C(O)[C@@H]1C[C@H](CP(=O)(O)O)CCN1` [CGS 19755], the neuroprotective efficacy entry in [4] was “neuroprotective efficacy”. Besides, the “PCP-like behavioral side effects” value in [5] is reported as “adverse PCP-like behavioral side effects”.

With `O=c1[nH]c2ccccc2c(O)c1[N+](=O)[O-]` [Compound 16a, 3-Nitro-4-hydroxy-1,2-dihydroquinolin-2-one], in data set [6], the “binding to the glycine receptor” value is “high binding” and the “selectivity for the glycine receptor” value is “highly selective”. In data set [1], the “potency relative to 5,7-dichlorokynurenic acid (DCK)” value is given as 1.4% and the pKi was 4.74.

Regarding `O=c1[nH]c2ccc([N+](=O)[O-])cc2c(O)c1[N+](=O)[O-]` [Compound 16b, 3,6-Dinitro-4-hydroxy-1,2-dihydroquinolin-2-one], the “activity relative to 16a” value in data set [1] (in words) was “about as active as 16a”.

`O=c1[nH]c2cc(Cl)cc(Cl)c2c(O)c1[N+](=O)[O-]` [Compound 16c, 5,7-dichloro-3-nitro-4-hydroxy-1,2-dihydroquinolin-2-one]: in [1], the “potency relative to 5,7-dichlorokynurenic acid (DCK)” value was found to be 19% and the pKi was 5.85.

In the case of `NC1CCN(O)C1=O` (stereo not drawn) [HA-966], in [2] (in words), the blood/brain barrier penetration entry was “sufficiently penetrates the blood/brain barrier”. Moreover, in data set [3] (in words), the “affinity for the glycine binding site” value is reported as “micromolar affinity” and the “mode of action at the glycine binding site” value is on record as “partial agonist”.

Turning to `O=C(O)C1CC2CC(CP(=O)(O)O)CCC2CN1` (stereo not drawn) [LY274614], the neuroprotective efficacy result in data set [4] is listed as “neuroprotective efficacy”.

Take `C[C@]12N[C@H](Cc3ccccc31)c1ccccc12` [MK-801]: in [4], the neuroprotective efficacy entry is “neuroprotective efficacy both in vitro and in vivo”. Besides, the pKd in data set [7] was approximately 8.52. In [5], the “PCP-like behavioral side effects” value is “adverse PCP-like behavioral side effects”.

With `c1ccc(C2(N3CCCCC3)CCCCC2)cc1` [PCP, phencyclidine], the “PCP-like behavioral effect in pigeons” value in data set [8] was “characteristic katalepsy”. The “PCP-like behavioral effects in rodents / animal models” value in data set [9] is given as “behavioral excitation (hyperlocomotion)”. Also, the neuroprotective efficacy entry in data set [4] was “neuroprotective efficacy both in vitro and in vivo”.

For the compound `COc1ccc2c(c1)[C@]13CCCC[C@@H]1[C@H](C2)N(C)CC3` [dextromethorphan], in data set [4], the neuroprotective efficacy entry was “neuroprotective efficacy both in vitro and in vivo”.

Consider `NCC(=O)O` [glycine], for which the pKd in data set [3] (used in Cheng and Prusoff equation, read-out: known affinity of glycine for the glycine binding site) was 7.00.

For `O=C(O)c1cc2ccccc2[nH]1` [indole-2-carboxylic acid], in data set [2] (in words), the blood/brain barrier penetration result is recorded as “cannot penetrate the blood/brain barrier”. Besides, the “affinity for the glycine binding site” value in [3] (in words) is “relatively high receptor binding affinity”.

On to `CNC1(c2ccccc2Cl)CCCCC1=O` (stereo not drawn) [ketamine], for which the neuroprotective efficacy entry in data set [4] is “neuroprotective efficacy both in vitro and in vivo”.
